In EP1604643A1, “Cosmetic use of derivatives of 3-Phenylpropionic acid” (Cognis France, S.A.S., priority 2004, dated 2005):
Read-outs that look alike come from different tables or passages of the source.

Columns and labels:
Human fibroblasts = experiment: Cytophotoprotection of human fibroblasts against UVA radiation (cell proteins, MDA released); type: cell-based; details: for activity at 0.01 % strength / activity at 0.03 % strength: Homo sapiens, Fibroblast, light or radiation study, % against control, UVA 20 J/cm2; for activity at 0.01 % strength: dose 0.01 % w/v; for activity at 0.03 % strength: dose 0.03 % w/v
Protocol: The cytoprotection against UVA irradiation has been evaluated by a test on human fibroblasts because UVA radiation penetrates through the epidermis until the dermis where it induces oxidative stress, mainly by activation of photosensitising biological components, which catalyse the formation of ROS like anion superoxide, hydrogen peroxide and singlet oxygen, and lipoperoxydation of the cell membrane. These oxidative stress effects are evaluated in vitro due to measuring of the level of released malondialdehyde (MDA) (Morlière P., Moisan A., Santus R., Huppe G., Mazière J.C., Dubertret L. UV-A induced lipid peroxydation in cultured human fibroblasts. Biochim. Biophys. Acta (1991) Vol 1084, pp 261-269). The lipoperoxides formed after UVA irradiation undergo a decay into malondialdehyde which can form cross-links between many biological molecules like proteins with inhibition of enzymes and nucleic bases with risk of mutagenesis.
Human fibroblasts were inoculated with growth medium (DMEM+FCS) and incubated 3 days at 37°C, with 5% CO2. The growth medium was then exchanged by a medium containing the ingredient to be tested and was incubated 2 days at 37°C under an atmosphrere with 5 % of carbon dioxide. After the exchange of the medium bya balanced salt solution, the cell culture was irradiated with UVA radiation (20J/cm^2). Cell proteins were measured, and MDA released in the supernatant was determined spectrophotometrically.

[1] = Anti-inflammatory activity on human leucocytes cultured in vitro (Zymosan-induced respiratory burst, luminol luminescence); type: cell-based; details: human, leukocytes, % against control, average of 2-3 assays, each carried out 3 times, read-out: Cell number
Protocol: (§1) Human leukocytes (Polymorphonuclear neutrophilic granulocytes) were incubated with dihydrosinapinic acid during 1 day at 37°C under an atmosphere with 5 % carbon dioxide. The respiratory burst was induced by addition of a yeast extract ("Zymosan"). After incubation for 0.5 hours at 37 °C under an atmosphere with 5 % carbon dioxide the cell number was measured using an automatic cell counter and the rate of released reactive oxygen species was recorded by a luminescent reaction with luminol. (Pieper G.M., Gross G.J. EMD 52692 (bimakalim) a new potassium channel opener, attenuates luminol-enhanced chemiluminescence and superoxide anion radical formation by Zymosan-activated polymorphonuclear leukocytes (Immunopharmacology (1992) vol 23, pp 191-197). Table 3

[2] = tested on: Human leukocytes (Polymorphonuclear neutrophilic granulocytes); experiment: as above; type: cell-based
Protocol: as §1

[3] = Anti free radicals: DPPH° (diphenylpicryl-hydrazyl) test; details: optical density at 513 nm; average of two assays
Protocol: (§2) The anti-free radical (anti-FR) activity has been evaluated by chemical tests for the evaluation of the potential to scavenge free radicals R° (DPPH° test) and hydroxyl radicals HO°. Furthermore the anti-FR activity has been evaluated by biochemical tests to address the potential for scavenging of a kind of reactive oxygen species (ROS), so called superoxide anions (02°).
The DPPH° scavenging effect of dihydrosinapinic acid has been measured by recording the optical density at 513 nm (DEBY C. Relation entre les acides gras essentiels et le taux des antioxydants tissulaires chez la souris. SOCIETE BELGE DE BIOLOGIE, séance du 19 décembre 1970, pp: 2675-2680). The IC50 (Inhibitory Concentration 50 %: dose for which 50 % of DPPH° is scavenged, average of two assays) of dihydrosinapinic acid is 0.0006 % (w/v).

[4] = Anti hydroxyl radicals: HO° test with deoxyribose (Fenton's reaction); details: no EDTA; optical density at 532 nm; average of 2 assays
Protocol: as §2
The hydroxyle radical HO* (formed by H2O2 in presence of Fe++) oxidises deoxyribose, then a pink compound is formed by condensation of thiobarbituric acid with the oxidised form of deoxyribose. The level of oxidised deoxyribose is determined by measurement of the optical density at 532 nm.

Lipoxygenase = experiment: Inhibition test on lipoxygenase (released superoxide anions, luminol luminescent probes); type: biochemical; details: rate of released superoxide anions; mean of 2 assays
Protocol: The anti-free radical (anti-FR) activity has been evaluated by chemical tests for the evaluation of the potential to scavenge free radicals R° (DPPH° test) and hydroxyl radicals HO°. Furthermore the anti-FR activity has been evaluated by biochemical tests to address the potential for scavenging of a kind of reactive oxygen species (ROS), so called superoxide anions (02°). […] Lipoxygenase was incubated with a specific substrate (unsaturated fatty acid) and the ingredient to be tested. Then the rate of released superoxide anions was evaluated by Luminol luminescent probes. The IC50 (mean of 2 assays) of dihydrosinapinic acid was 0.0002 % (w/v).

[5] = average of 2 assays, each carried out three times, read-out: Cell proteins
[6] = irradiated control = 100, read-out: MDA released

- IC50 (dose for which 50 % of DPPH° is scavenged) [3]: 0.0006 % (w/v)
- IC50 (HO° test with deoxyribose) [4]: 0.025 % (w/v)
- IC50 (lipoxygenase inhibition) (Lipoxygenase): 0.0002 % (w/v)
SMILES: COc1cc(CCC(=O)O)cc(OC)c1O [Dihydrosinapinic acid, 3-(4-hydroxy-3,5-dimethoxyphenyl) propionic acid]
- activity at 0.01 % strength (Human fibroblasts; [5]): 121%
- activity at 0.01 % strength (Human fibroblasts; [6]): 47%
- activity at 0.03 % strength (Human fibroblasts; [5]): 140%
- activity at 0.03 % strength (Human fibroblasts; [6]): 12%
- protection of the cells against UVA-induced MDA released (Human fibroblasts; result in words, after incubation of the fibroblasts): strong protection
- viability ([1]; dose 0.0001 % w/v): 99%
- viability ([1]; dose 0.0003 % w/v): 98%
- activity at 0.0001 % strength ([2]; Homo sapiens, Leukocyte, % against control, dose 0.0001 % w/v, Zymosan-activated, read-out: Released ROS): 25%
- activity at 0.0003 % strength ([2]; Homo sapiens, Leukocyte, % against control, dose 0.0003 % w/v, Zymosan-activated, read-out: Released ROS): 13%
- respiratory burst (release of reactive oxygen species) ([2]; result in words, Zymosan-activated polymorphonuclear neutrophilic granulocytes): inhibited
